As usually defined, the IC50 is the concentration that inhibits the measured activity by half.

Consider 24 molecules from patent US12509444B2, “Compounds and methods for CD73 modulation and indications therefor” (Plexxikon Inc., priority 2019, dated 2025).

Test [1] has as its target T1, Human CD73 (amino acid residues 27-549) (Homo sapiens, UniProt P21589).
T1 construct: Human CD73 (amino acid residues 27-549); His tag (N); made in house; host or cells: E. coli
T1 sequence (P21589 27-549): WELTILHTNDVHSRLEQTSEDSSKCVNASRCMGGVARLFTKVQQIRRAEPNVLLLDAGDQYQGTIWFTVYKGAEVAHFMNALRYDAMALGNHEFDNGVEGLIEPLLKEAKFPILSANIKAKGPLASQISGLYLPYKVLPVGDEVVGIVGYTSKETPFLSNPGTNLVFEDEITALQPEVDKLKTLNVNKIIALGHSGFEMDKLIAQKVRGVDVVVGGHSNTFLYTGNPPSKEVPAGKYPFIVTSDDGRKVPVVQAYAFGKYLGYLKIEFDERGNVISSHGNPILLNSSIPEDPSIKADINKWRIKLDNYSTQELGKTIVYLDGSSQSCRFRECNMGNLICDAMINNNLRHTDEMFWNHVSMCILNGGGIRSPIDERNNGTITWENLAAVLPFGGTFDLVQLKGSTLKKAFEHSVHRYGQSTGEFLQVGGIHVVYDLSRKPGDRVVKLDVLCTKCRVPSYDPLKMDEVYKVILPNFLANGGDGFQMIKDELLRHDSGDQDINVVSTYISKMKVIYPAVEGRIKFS
The test can be described thus: CD73 enzymatic assay (luciferase-based indirect assay, CellTiter-Glo). The note with it: 0.4 nM CD73, 150 μM AMP, 1 hour at room temperature. In kind it is biochemical. In short, it runs like this:
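His-tagged human CD73 (27-549) from E. coli, 0.4 nM, with 150 μM AMP in 50 mM HEPES pH 7.4, 0.01% Tween 20; 1 h at room temperature. AMP remaining read by CellTiter-Glo 2.0 luminescence with 1 μM final ATP after 30 min. IC50 from nonlinear regression of % inhibition.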

The next test deals with T2, human CD73 (Homo sapiens, UniProt P21589).
T2 construct: expressed in transfected cells
T2 sequence (P21589 27-549): T1 sequence (P21589 27-549)
The test can be described thus: Inhibitor activity against CD73 in cell based assay (CD73 expressing CHO-K1 cells). The note with it: CHO-K1 cells expressing human CD73, 150 μM AMP, 4 hours of incubation; read-out: CHO-K1 CELL VARIANT: CD73 IC50. The essentials: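 Stably transfected CHO-K1 cells expressing human CD73 (1×10^4/well) incubated 4 h with compound (8-point 1:3 titration, top 10 μM final, 0.2% DMSO) and 150 μM AMP. Residual AMP in supernatant measured by CellTiter-Glo luminescence with 1 μM ATP after 30 min at room temperature; IC50 by nonlinear regression of percent inhibition vs high/low controls.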

Molecules are shown by their SMILES.

As to `N#CC12CC(NC(=O)O[C@@H]3CCN(c4cn[nH]c(=O)c4Cl)C3)(C1)C2` [P-0427, (R)-1-(5-chloro-6-oxo-1,6-dihydropyridazin-4-yl)pyrrolidin-3-yl (3-cyanobicyclo[1.1.1]pentan-1-yl)carbamate], the IC50 (in test [1]; on human CD73) was 0.001 to 10 µM throughout.
`O=C(NC12CC(C1)C2)O[C@@H]1CCN(c2cn[nH]c(=O)c2Cl)C1` [P-0428, (R)-1-(5-chloro-6-oxo-1,6-dihydropyridazin-4-yl)pyrrolidin-3-yl bicyclo[1.1.1]pentan-1-ylcarbamate]: the IC50 (in test [1]; at human CD73) was 0.001 to 10 µM throughout.
Turning to `O=C(NC1(CO)CCCC1)O[C@@H]1CCN(c2cn[nH]c(=O)c2Cl)C1` [P-0429, (R)-1-(5-chloro-6-oxo-1,6-dihydropyridazin-4-yl)pyrrolidin-3-yl (1-(hydroxymethyl)cyclopentyl) carbamate], the IC50 (in test [1]; at human CD73) was 0.001 to 10 µM each time.
Regarding `O=C(Cn1ncc(N2CC[C@@H](OC(=O)NC3CCC(F)(F)CC3)C2)c(Cl)c1=O)NO` [P-0430, (R)-1-(5-chloro-1-(2-(hydroxyamino)-2-oxoethyl)-6-oxo-1,6-dihydropyridazin-4-yl)pyrrolidin-3-yl (4,4-difluorocyclohexyl)carbamate], the IC50 in test [1] is 0.001 to 10 µM; on human CD73 it was 10 to 100 µM.
For `O=C(NC1CC(F)(F)C1)O[C@@H]1CCN(c2cnn(CCO)c(=O)c2Cl)C1` [P-0431, (R)-1-(5-chloro-1-(2-hydroxyethyl)-6-oxo-1,6-dihydropyridazin-4-yl)pyrrolidin-3-yl (3,3-difluorocyclobutyl)carbamate] the same measures were 0.001 to 10 µM and 0.001 to 10 µM.
For `CC1(NC(=O)O[C@@H]2CCN(c3cn[nH]c(=O)c3Cl)C2)CC(F)(F)C1` [P-0432, (R)-1-(5-chloro-6-oxo-1,6-dihydropyridazin-4-yl)pyrrolidin-3-yl (3,3-difluoro-1-methylcyclobutyl)carbamate] the same measures were 0.001 to 10 µM and 0.001 to 10 µM.
For `O=C(NC12CC(F)(C1)C2)O[C@@H]1CCN(c2cn[nH]c(=O)c2Cl)C1` [P-0433, (R)-1-(5-chloro-6-oxo-1,6-dihydropyridazin-4-yl)pyrrolidin-3-yl (3-fluorobicyclo[1.1.1]pentan-1-yl)carbamate] the same measures were 0.001 to 10 µM and 0.001 to 10 µM.
Consider `O=C(N[C@H]1CC[C@@H](NC2CCC2)CC1)O[C@@H]1CCN(c2cn[nH]c(=O)c2Cl)C1` [P-0434, (R)-1-(5-chloro-6-oxo-1,6-dihydropyridazin-4-yl)pyrrolidin-3-yl ((1s,4S)-4-(cyclobutylamino)cyclohexyl) carbamate], for which the IC50 (in test [1]; at human CD73) was 0.001 to 10 µM in each case.
In the case of `NCCn1ncc(N2CC[C@@H](OC(=O)N[C@H]3CC[C@@H](NC(=O)NC4CC4)CC3)C2)c(Cl)c1=O` [P-0435, (R)-1-(1-(2-aminoethyl)-5-chloro-6-oxo-1,6-dihydropyridazin-4-yl)pyrrolidin-3-yl ((1s,4S)-4-(3-cyclopropylureido)cyclohexyl) carbamate], the IC50 (in test [1]; on human CD73) was 0.001 to 10 µM throughout.
Consider `C#CC1(NC(=O)O[C@@H]2CCN(c3cn[nH]c(=O)c3Cl)C2)CCCCC1` [P-0436, (R)-1-(5-chloro-6-oxo-1,6-dihydropyridazin-4-yl)pyrrolidin-3-yl (1-ethynylcyclohexyl)carbamate], for which the IC50 (in test [1]; at human CD73) was 0.001 to 10 µM in each case.
On to `CC1(NC(=O)O[C@@H]2CCN(c3cn[nH]c(=O)c3Cl)C2)CCC(F)(F)CC1` [P-0437, (R)-1-(5-chloro-6-oxo-1,6-dihydropyridazin-4-yl)pyrrolidin-3-yl (4,4-difluoro-1-methylcyclohexyl)carbamate], for which the IC50 (in test [1]; at human CD73) was 0.001 to 10 µM in each case.
Turning to `O=C(NC1CCN(C(=O)Nc2ncccc2F)CC1)O[C@@H]1CCN(c2cn[nH]c(=O)c2Cl)C1` [P-0438, (R)-1-(5-chloro-6-oxo-1,6-dihydropyridazin-4-yl)pyrrolidin-3-yl (1-((3-fluoropyridin-2-yl)carbamoyl)piperidin-4-yl)carbamate], the IC50 (in test [1]; at human CD73) was 0.001 to 10 µM each time.
Turning to `CC1(NC(=O)O[C@@H]2CCN(c3cnn(CCO)c(=O)c3Cl)C2)CC(F)(F)C1` [P-0439, (R)-1-(5-chloro-1-(2-hydroxyethyl)-6-oxo-1,6-dihydropyridazin-4-yl)pyrrolidin-3-yl (3,3-difluoro-1-methylcyclobutyl)carbamate], the IC50 (in test [1]; on human CD73) was 0.001 to 10 µM in each case.
As to `O=C(NC1C2CCC1CC(F)(F)C2)O[C@@H]1CCN(c2cn[nH]c(=O)c2Cl)C1` (stereo partly drawn) [P-0440, (R)-1-(5-chloro-6-oxo-1,6-dihydropyridazin-4-yl)pyrrolidin-3-yl (3,3-difluorobicyclo[3.2.1]octan-8-yl)carbamate], the IC50 (in test [1]; at human CD73) was 0.001 to 10 µM each time.
For `O=C(NC1CC2C(C1)C2(F)F)O[C@@H]1CCN(c2cn[nH]c(=O)c2Cl)C1` (stereo partly drawn) [P-0441, (R)-1-(5-chloro-6-oxo-1,6-dihydropyridazin-4-yl)pyrrolidin-3-yl (6,6-difluorobicyclo[3.1.0]hexan-3-yl)carbamate], the IC50 (in test [1]; on human CD73) was 0.001 to 10 µM each time.
Take `COc1ccc(CC(=O)N2CCC(NC(=O)O[C@@H]3CCN(c4cn[nH]c(=O)c4Cl)C3)CC2)cc1` [P-0442, (R)-1-(5-chloro-6-oxo-1,6-dihydropyridazin-4-yl)pyrrolidin-3-yl (1-(2-(4-methoxyphenyl)acetyl)piperidin-4-yl)carbamate]: the IC50 (in test [1]; at human CD73) was 0.001 to 10 µM in each case.
Take `O=C(NC1CCN(C(=O)Cc2ccc(F)cc2)CC1)O[C@@H]1CCN(c2cn[nH]c(=O)c2Cl)C1` [P-0443, (R)-1-(5-chloro-6-oxo-1,6-dihydropyridazin-4-yl)pyrrolidin-3-yl (1-(2-(4-fluorophenyl)acetyl)piperidin-4-yl)carbamate]: the IC50 (in test [1]; at human CD73) was 0.001 to 10 µM each time.
For the molecule `O=C(NC1CCN(C(=O)Cc2ccc(Cl)c(F)c2)CC1)O[C@@H]1CCN(c2cn[nH]c(=O)c2Cl)C1` [P-0444, (R)-1-(5-chloro-6-oxo-1,6-dihydropyridazin-4-yl)pyrrolidin-3-yl (1-(2-(4-chloro-3-fluorophenyl)acetyl)piperidin-4-yl)carbamate], the IC50 (in test [1]; at human CD73) was 0.001 to 10 µM each time.
As for `O=C(NC1CCN(C(=O)Cc2ccc(F)c(Cl)c2)CC1)O[C@@H]1CCN(c2cn[nH]c(=O)c2Cl)C1` [P-0445, (R)-1-(5-chloro-6-oxo-1,6-dihydropyridazin-4-yl)pyrrolidin-3-yl (1-(2-(3-chloro-4-fluorophenyl)acetyl)piperidin-4-yl)carbamate], the IC50 (in test [1]; at human CD73) was 0.001 to 10 µM throughout.
As to `O=C(NC1CC2CCC2C1)O[C@@H]1CCN(c2cn[nH]c(=O)c2Cl)C1` (stereo partly drawn) [P-0446, (R)-1-(5-chloro-6-oxo-1,6-dihydropyridazin-4-yl)pyrrolidin-3-yl bicyclo[3.2.0]heptan-3-ylcarbamate], the IC50 (in test [1]; at human CD73) was 0.001 to 10 µM throughout.
With `O=C(N[C@@H]1CCC[C@H]1F)O[C@@H]1CCN(c2cn[nH]c(=O)c2Cl)C1` [P-0447, (R)-1-(5-chloro-6-oxo-1,6-dihydropyridazin-4-yl)pyrrolidin-3-yl ((1R,2R)-2-fluorocyclopentyl)carbamate], the IC50 (in test [1]; at human CD73) was 0.001 to 10 µM throughout.
As for `O=C(NC12CCC(F)(CC1)C2)O[C@@H]1CCN(c2cn[nH]c(=O)c2Cl)C1` [P-0448, (R)-1-(5-chloro-6-oxo-1,6-dihydropyridazin-4-yl)pyrrolidin-3-yl (4-fluorobicyclo[2.2.1]heptan-1-yl)carbamate], the IC50 (in test [1]; on human CD73) was 0.001 to 10 µM throughout.
`O=C(NC1CC2CC2C1)O[C@@H]1CCN(c2cnn(CCO)c(=O)c2Cl)C1` (stereo partly drawn) [P-0449, (R)-1-(5-chloro-1-(2-hydroxyethyl)-6-oxo-1,6-dihydropyridazin-4-yl)pyrrolidin-3-yl bicyclo[3.1.0]hexan-3-ylcarbamate]: the IC50 (in test [1]; on human CD73) was 0.001 to 10 µM throughout.
As for `CC1CCCC1NC(=O)O[C@@H]1CCN(c2cnn(CCO)c(=O)c2Cl)C1` (stereo partly drawn) [P-0450, (R)-1-(5-chloro-1-(2-hydroxyethyl)-6-oxo-1,6-dihydropyridazin-4-yl)pyrrolidin-3-yl (2-methylcyclopentyl)carbamate], the IC50 (in test [1]; on human CD73) was 0.001 to 10 µM each time.
